The structures appear in SMILES notation.

The target of the experiment is T1, p38α kinase (Homo sapiens, UniProt Q16539).
T1 construct: purchased Upstate
T1 sequence (Q16539 whole entry): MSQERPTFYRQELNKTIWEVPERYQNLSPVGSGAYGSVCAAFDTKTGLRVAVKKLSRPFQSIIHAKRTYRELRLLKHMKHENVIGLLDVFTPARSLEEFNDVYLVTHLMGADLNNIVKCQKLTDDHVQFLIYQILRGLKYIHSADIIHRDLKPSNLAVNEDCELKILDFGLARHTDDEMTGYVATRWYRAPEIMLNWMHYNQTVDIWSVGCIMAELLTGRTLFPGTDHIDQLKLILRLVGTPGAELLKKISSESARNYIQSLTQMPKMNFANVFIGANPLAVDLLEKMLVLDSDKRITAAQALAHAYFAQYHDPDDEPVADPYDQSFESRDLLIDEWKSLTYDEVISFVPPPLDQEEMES
Description: p38α assay (enzyme inhibition). In kind it is biochemical. How it is done: Compound inhibitory activity was measured in a radioactive enzyme assay. The buffer composition was adopted from Lisnock et al (Biochemistry, 1998, vol. 37, pp 16573-16581). Peptide substrate was selected from Chen et al (Biochemistry, 2000, vol. 39, 2079-2087). The concentrations of p38α, [γ-^33P-ATP] and peptide were equal 1 nM, 85 uM and 250 uM, respectively. Incorporation of ^33P into peptide was measured using absorption on filtermats with subsequent wash with 100 mM phosphoric acid followed by ethanol.
cDNAs of human p38α and β were cloned by PCR. The α and β cDNAs were subcloned into DEST2 plasmid (Gateway, InVitrogen). His6-p38 fusion protein was expressed in E. coli and purified from bacterial lysates by affinity chromatography using Ni^+2-NTA-agarose. His6-p38 protein was activated by incubating with constitutively active MKK6. Active p38 was separated from MKK6 by affinity chromatography. Constitutively active MKK6 was generated in a manner similar to Raingeaud et al. (Mol. Cell. Biol., 1247-1255 (1996)).
The p38α assay employed is based on measurement of ADP released in the reaction of interest through NADH oxidation obtained by coupling with pyruvate kinase and lactate dehydrogenase reactions. The assays were performed in 384-well UV-plates. The final volume was 25 uL prepared from the addition of 2.5 uL compound dissolved in 10% DMSO, 17.5 uL of assay buffer and 5 uL of ATP. Assay buffer contains the following reagents to give final concentration in the assay: 25 mM HEPES, 20 mM 2-glycerophosphate, pH 7.6, 10 mM MgCl2, 0.1 mM sodium orthovanadate, 0.5 mM phosphoenolpyruvate, 0.12 mM NADH, 3.1 mg/ml LDH, 6.67 mg/ml pyruvate kinase, 0.25 mM peptide substrate, 2 mM DTT, 0.005% Tween 80 and 20 nM p38α kinase from Upstate. Test compounds are preincubated with p38α kinase for 60 min and the reaction started by addition of ATP to 0.15 mM final concentration. Reaction rates were measured at 340 nm using SpectraMax plate-reading spectrophotometer for 10 min at 37° C. Inhibition data were analyzed by non-linear least-squares regression using SigmaPlot.
As to `CONC(=O)c1ccc(C)c(Nc2nnc(-c3ccccc3)[nH]2)c1` [Compound 1, N-methoxy-4-methyl-3-(5-phenyl-4H-[1,2,4]triazol-3-ylamino)-benzamide], the concentration for half-maximal inhibition (IC50) was below 50 nM. With `CONC(=O)c1ccc(C)c(Nc2noc(-c3ccccc3)n2)c1` [Compound 2, N-methoxy-4-methyl-3-(5-phenyl-[1,2,4]oxadiazol-3-ylamino)-benzamide] the figure was below 50 nM; with `Cc1ccc(C(=O)NC2CC2)cc1Nc1nc(-c2ccccc2)cs1` [Compound 3, N-Cyclopropyl-4-methyl-3-(4-phenyl-thiazol-2-ylamino)-benzamide], above 100 nM; with `Cc1ccc(C(=O)NC2CC2)cc1Nc1ncc(C(=O)NCc2ccccc2)s1` [Compound 26, 2-(5-Cyclopropylcarbamoyl-2-methyl-phenylamino)-thiazole-5-carboxylic acid benzylamide], below 50 nM.

With `Cc1cccc(-c2nc(Nc3cc(C(=O)NC4CC4)ccc3C)sc2C(=O)NCc2ccccc2)c1` [Compound 28-6, 2-(5-Cyclopropylcar-bamoyl-2-methyl-phenylamino)-4-m-tolyl-thiazole-5-carboxylic acid benzylamide], the IC50 was 50 to 100 nM. With `Cc1ccc(C(=O)NC2CC2)cc1Nc1nc(-c2cccc(C#N)c2)c(C(=O)NCc2ccccc2)s1` [Compound 28-9, 4-(3-Cyano-phenyl)-2-(5-cyclopropyl-carbamoyl-2-methyl-phenylamino)thia-zole-5-carboxylic acid benzylamide] the figure was 50 to 100 nM; with `Cc1ccc(C(=O)NC2CC2)cc1Nc1nc(-c2cccc(CN)c2)c(C(=O)NCc2ccccc2)s1` [Compound 28-24, 4-(3-Aminomethyl-phenyl)-2-(5-cyclo-propylcarbamoyl-2-methylphenylamino) thiazole-5-carboxylic acid benzylamide], below 50 nM; with `Cc1ccc(C(=O)NC2CC2)cc1Nc1nc(-c2ccc3[nH]ccc3c2)c(C(=O)NCc2ccccc2)s1` [Compound 28-40, 2-(5-Cyclopropylcar-bamoyl-2-methyl-phenylamino)-4-(1H-indol-5-yl)-thiazole-5-carboxylic acid benzylamide], above 100 nM.

In general, IC50 refers to the midpoint of a concentration-inhibition curve. The low end stands for higher potency, the high end for lower potency.

The values above are taken from US7652044B2, “P-38 inhibitors” (Novartis A.G., priority 2003, dated 2010).
